In patent US4333947A, “Substituted imidazoles and their use” (Farmos-Yhtyma Oy, priority 1980, dated 1982):
Where two headings read alike, the source gives them in different places.

Tests used:
Sprague-Dawley rats = assay: blood pressure and pulse frequency in anesthetized rats of normal weight; format: in vivo; details: for minimal effective dose: Rattus norvegicus, iv, anesthetized rats, i.v.
Protocol: The anti-hypertensive properties of the imidazole derivatives of the present invention have been determined according to the following procedure. Sprague-Dawley rats of normal weight were first anesthetized with urethane. After this, the femoral artery was connected by way of a polyethylene tube with a blood pressure transducer. The test substance was then injected into the femoral vein and the blood pressure and the pulse frequency were registered with a recorder.

Aspergillus niger = assay: antifungal activity in vitro, agar diffusion method, Aspergillus niger; format: cell-based; details: 1000 μg/ml
Protocol: (§1) The antimicrobial activity was determined in vitro according to a qualitative test for antibacterial and antifungal activity, using the agar diffusion method, against the following standard organisms: Staphylococcus aureus, Streptococcus pyogenes, Escherichia coli, Proteus mirabilis, Pseudomonas aeruginosus, Candida albicans and Aspergillus niger.

Candida albicans = assay: antifungal activity in vitro, agar diffusion method, Candida albicans; format: cell-based; details: 1000 μg/ml
Protocol: as §1

[1] = acute toxicity, i.v., female mice of NMRI-Strain; details: mouse, in vivo, iv
Protocol: Acute toxicity was determined by using female mice of NMRI-Strain with an age of about 7 months and weighing 30-40 g. The administration of the test compound was i.v.

[2] = tested on: all the bacterial species; assay: antibacterial activity in vitro, agar diffusion method, all bacterial species; format: cell-based; details: 1000 μg/ml
Protocol: as §1

rats = assay: diuretic effect in rats, urine output 0-5 hours after i.p. injection; format: in vivo
Protocol: The diuretic effect was studied in rats by collecting the urine output during 0-5 hours after i.p. injection of the compound. Before the test the rats were fasting overnight and got 10 ml water p.o. immediately before the injection.

[3] = tested on: all standard bacterial and fungal species; assay: antimicrobial activity in vitro, agar diffusion method, all standard bacterial and fungal species; format: cell-based; details: 1000 μg/ml
Protocol: as §1

fungi = assay: antifungal activity in vitro, agar diffusion method, fungi; format: cell-based, Candida albicans and Aspergillus niger; details: 1000 μg/ml
Protocol: as §1

[4] = tested on: isoprenaline-induced chronotropic and inotropic action in the isolated atrium; assay: β-blocking activity in vitro, isoprenaline-induced chronotropic and inotropic action in isolated guinea-pig atrium; format: cell-based; details: Cavia porcellus; 1 μg/ml; read-out: inhibition of isoprenaline-induced chronotropic effect
Protocol: The β-blocking activity was measured in vitro as follows: The atrium of a guinea-pig was isolated. The inhibiting activity of the compound against isoprenaline-induced chronotropic and inotropic action in the isolated atrium was measured.

[5] = tested on: arachidonic acid induced pulmonary thromboembolism; assay: antithrombotic activity in vivo, arachidonic acid induced pulmonary thromboembolism in mice; details: 10 mg/kg p.o.
Protocol: The antithrombotic activity was investigated in vivo in mice as follows: The compounds to be tested were administered orally. After this arachidonic acid was given i.v. The inhibiting activity of the test compounds against arachidonic acid induced pulmonary thromboembolism was investigated.

[6] = tested on: collagen-induced aggregation of thrombocytes; assay: antithrombotic activity in vitro, collagen-induced aggregation of thrombocytes; format: cell-based; details: cow thrombocytes, 10 min incubation
Protocol: (§2) In a further test the antithrombotic activity was investigated in vitro. The inhibiting activity of the compounds against ADP- and collagen-inducedaggregation of thrombocytes was measured. In the test thrombocytes from a cow was used. To 1.2 ml of plasma containing 250000 thrombocytes/mm^3 were added 50 μl of a solution of the compound to be tested. After 10 min incubation either ADP or collagen was added. The aggregation of the thrombocytes was turbidimetrically determined at λ=605 n m.

[7] = tested on: ADP-induced aggregation of thrombocytes; assay: antithrombotic activity in vitro, ADP-induced aggregation of thrombocytes; format: cell-based; details: cow thrombocytes, 10 min incubation
Protocol: as §2

Staph. aureus = assay: antibacterial activity in vitro, agar diffusion method, Staph. aureus; format: cell-based, Staphylococcus aureus; details: 100 μg/ml
Protocol: as §1

[8] = tested on: all other bacterial and fungal species; assay: antimicrobial activity in vitro, agar diffusion method, all other bacterial and fungal species (than E. coli and Staph. aureus); format: cell-based; details: 1000 μg/ml
Protocol: as §1

E. coli = assay: antibacterial activity in vitro, agar diffusion method, E. coli; format: cell-based, Escherichia coli; details: 100 μg/ml
Protocol: as §1

[9] = read-out: dose i.v. causing a registrable lowering of the blood pressure
[10] = 1 mg/kg, 20 minutes after administration
[11] = 300 μg/kg i.v., 20 minutes after administration

With `Cc1[nH]cnc1C=Cc1c(Cl)cccc1Cl` [4-[2-(2',6'-Dichlorophenyl)-ethenyl]-5-methyl-imidazole] as the compound, how does the “lowering of the blood pressure” value (Sprague-Dawley rats; 3 mg/kg i.v., 20 minutes after administration) read?
Its value is 30%.

And the minimal effective dose (Sprague-Dawley rats; read-out: dose i.v. at which a decrease of pulse frequency was noticed)?
The minimal effective dose was 1 mg/kg.

What about the minimal effective dose (Sprague-Dawley rats; [9]) of the same compound?
Its minimal effective dose is 0.3 mg/kg.

And the “activity against Aspergillus niger” value (Aspergillus niger)?
The value was “inactive”.

And the “activity against Candida albicans” value (Candida albicans)?
Its value is “active”.

And the LD50 [1]?
The LD50 was 100 mg/kg.

What about the “activity against all the bacterial species” value [2] of the same compound?
Its value is “active”.

Which “diuretic effect (5h)” value (rats; 0.005 mg/kg i.p.) does the source give for `Clc1cccc(Cl)c1C=Cc1c[nH]cn1` [4-[2-(2',6'-Dichlorophenyl)-ethenyl]-imidazole] here?
The value was 128%.

What about the “diuretic effect (5h)” value (rats; 0.05 mg/kg i.p.) of the same compound?
The value was 132%.

What about the “diuretic effect (5h)” value (rats; 0.5 mg/kg i.p.) of the same compound?
The value was 135%.

And the “decrease of pulse frequency” value (Sprague-Dawley rats; [10])?
The value was 30%.

And the “lowering of the blood pressure” value (Sprague-Dawley rats; [10])?
The value was 25%.

And the LD50 [1]?
Its LD50 is 85 mg/kg.

What about the “antimicrobial activity against all standard bacterial and fungal species” value [3] of the same compound?
The value was “active”.

What does the source list for `Cc1cccc(C)c1/C=C/c1c[nH]cn1` [4-[2-(2',6'-Dimethylphenyl)-ethenyl]-imidazole]?
decrease of pulse frequency (Sprague-Dawley rats; [11]): 24%; reduction of the blood pressure (Sprague-Dawley rats; [11]): 20%; minimal effective dose (Sprague-Dawley rats; [9]): 0.01 mg/kg; LD50 [1]: 50 mg/kg

What does the source list for `Cc1[nH]cnc1C=Cc1ccccc1Cl` [4-[2-(2'-Chlorophenyl)-ethenyl]-5-methyl-imidazole]?
activity against the fungi (fungi): not against the fungi; LD50 [1]: 85 mg/kg; inhibition at 1 µg/mL [4]: 67%; mice protected from arachidonic acid-induced pulmonary thromboembolism [5]: 4 of 5; activity against all the bacterial species [2]: active

For `Cc1cccc(CC=Cc2c[nH]cn2)c1C` [4-[3-(2',3'-Dimethylphenyl)-1-propenyl]-imidazole], which “inhibition of collagen-induced thrombocyte aggregation” value [6] is on record?
Its value is “completely”.

And the “inhibition of ADP-induced thrombocyte aggregation” value [7]?
The value was “clearly”.

What about the “decrease of the blood pressure” value (Sprague-Dawley rats; 0.3-1 mg/kg i.v., 20 minutes after administration) of the same compound?
Its value is 20%.

What about the LD50 [1] of the same compound?
The LD50 was 75 mg/kg.

For `Cc1cccc(C)c1CC=Cc1c[nH]cn1` [4-[3-(2',6'-Dimethylphenyl)-1-propenyl]-imidazole], which “decrease of the blood pressure” value (Sprague-Dawley rats; 1-3 mg/kg i.v., 20 minutes after administration) is on record?
The value was 20%.

What about the LD50 [1] of the same compound?
The LD50 was 75 mg/kg.

What does the source list for `Cc1cccc(C)c1CCCC=Cc1c[nH]cn1` [4-[5-(2',6'-Dimethylphenyl)-1-pentenyl]-imidazole]?
activity against Staph. aureus (Staph. aureus): active; LD50 [1]: 40 mg/kg; activity against all other bacterial and fungal species [8]: active; inhibition at 1 µg/mL [4]: 57%; activity against E. coli (E. coli): active
